From patent US20110150825A1, “USES OF SELECTIVE INHIBITORS OF HDAC8 FOR TREATMENT OF INFLAMMATORY CONDITIONS” (PHARMACYCLICS, INC., priority 2006, published 2011)
Where “and” joins values, the source holds several entries; their conditions need not be identical. Identical values can stand only once. Each block holds one molecule with its values, some of them ahead of it.

Assays:
[1] = biological target: T1, Caspase-1 (Homo sapiens, UniProt P29466); experiment: Purified protease assay, fluorescence (Caspase-1); assay type: biochemical
T1 sequence (P29466 120-297 limits assumed): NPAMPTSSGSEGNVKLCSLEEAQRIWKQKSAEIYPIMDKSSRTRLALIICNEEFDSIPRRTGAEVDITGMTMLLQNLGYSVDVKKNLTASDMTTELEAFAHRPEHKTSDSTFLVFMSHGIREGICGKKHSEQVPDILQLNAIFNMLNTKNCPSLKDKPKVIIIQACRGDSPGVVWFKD
T1 sequence (P29466 317-404 limits assumed): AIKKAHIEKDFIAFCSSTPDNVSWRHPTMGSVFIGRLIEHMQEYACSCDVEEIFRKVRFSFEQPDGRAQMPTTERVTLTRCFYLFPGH
Source text: (§1) . Product was quantified by fluorescence (n=2) (FIG. 19). Ac-YVAD-CHO and GM-6001 served as positive controls and were used at empirically determined IC50 concentrations.

[2] = tested on: oxazolone-induced topical inflammatory model in BALB/c mice; experiment: Oxazolone-induced topical inflammatory model (ear swelling); assay type: in vivo
Procedure: To this end, we utilized two mouse models of allergic contact dermatitis, which are schematically illustrated in FIG. 12. […] Afterwards, the difference in the thickness of each of the two ears was compared to measure the extent of swelling (ie. inflammation).
As a further test, vehicle or the indicated compounds were administered topically in 40 μl doses 30 minutes before and 15 minutes after a second challenge (25 μl/ear of 1% oxazolone in acetone) (n=6). Ear thickness was measured 24 hours after the second challenge with a Dyer model micrometer gauge.

[3] = biological target: TNFα converting enzyme (TACE) (Homo sapiens, UniProt P78536); experiment: Purified protease assay, fluorescence (TACE); assay type: biochemical
Source text: as §1

[4] = tested on: primary human monocytes; experiment: IL-1β secretion and IL-1β species in LPS-induced primary human monocytes (ELISA, western blotting); assay type: cell-based
Procedure: Culture supernatants were analyzed for cytokine levels by ELISA (FIG. 16). […] Cell lysates were also analyzed for levels of IL-1β species by western blotting (FIG. 20).
Cells were treated with 1 mM ATP for 10 minutes. Culture supernatants were analyzed for IL-1β by ELISA (FIG. 18).

[5] = tested on: arachidonic acid-induced topical inflammatory model in BALE/c mice; experiment: Arachidonic acid-induced topical inflammatory model (ear swelling); assay type: in vivo

Sequence of TNFα converting enzyme (TACE) (P78536 215-824, species assumed): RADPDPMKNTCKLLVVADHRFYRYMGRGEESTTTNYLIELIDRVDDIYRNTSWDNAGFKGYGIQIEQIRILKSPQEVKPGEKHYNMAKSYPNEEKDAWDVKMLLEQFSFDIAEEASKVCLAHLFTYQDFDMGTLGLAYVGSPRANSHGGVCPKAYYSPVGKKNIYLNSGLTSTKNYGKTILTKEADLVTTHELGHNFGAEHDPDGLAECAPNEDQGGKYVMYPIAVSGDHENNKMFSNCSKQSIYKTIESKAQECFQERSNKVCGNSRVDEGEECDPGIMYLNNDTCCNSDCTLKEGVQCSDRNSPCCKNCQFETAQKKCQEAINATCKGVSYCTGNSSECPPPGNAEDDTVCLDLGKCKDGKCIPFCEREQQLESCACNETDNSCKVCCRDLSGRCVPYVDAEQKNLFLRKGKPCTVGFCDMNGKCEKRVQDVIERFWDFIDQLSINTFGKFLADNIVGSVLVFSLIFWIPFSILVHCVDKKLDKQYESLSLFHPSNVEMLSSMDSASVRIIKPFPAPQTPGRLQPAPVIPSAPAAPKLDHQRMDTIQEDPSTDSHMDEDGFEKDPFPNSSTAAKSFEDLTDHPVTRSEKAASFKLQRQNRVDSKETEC

IC50 ([1]; positive control, read-out: empirically determined IC50 concentration, Caspase-1): 20 nM
Structure (SMILES): CC(=O)N[C@@H](Cc1ccc(O)cc1)C(=O)N[C@H](C(=O)N[C@@H](C)C(=O)N[C@H](C=O)CC(=O)O)C(C)C [Ac-YVAD-CHO, reference compound]

Structure (SMILES): COc1ccc(Cn2ccc3ccc(C(=O)NO)cc32)cc1 [Compound 23, 1-(4-methoxy-phenylmethyl)-1H-indole-6-carboxylic acid hydroxyamide]
Ear Thickness Net ([2]; 1 mg/ear × 2, topical): 12.5 ± 1.8 0.01 mm
Ear Thickness Net ([2]; 3 mg/ear × 2, topical): 7.3 ± 0.3 0.01 mm
direct inhibition of TACE protease ([3]; 10 μM): does not Directly Inhibit
pro-IL-1β levels in cell lysates, of control levels (densitometry) ([4]; 2 μM lane): 153%
pro-IL-1β levels in cell lysates, of control levels (densitometry) ([4]; 10 μM lane): 142%
direct inhibition of Caspase-1 protease ([1]; 10 μM): does not Directly Inhibit
arachidonic acid-induced inflammation (in words) ([5]; 1 mg): reduced arachidonic acid-induced inflammation
Ear thickness L. Ear, mean (X) ([5]; TOP, 1 mg/ear × 2): 20.0 ×0.01 mm
Ear thickness Net, mean (X) ([5]; TOP, 1 mg/ear × 2): 9.7 ×0.01 mm
Ear thickness R. Ear, mean (X) ([5]; TOP, 1 mg/ear × 2): 29.7 ×0.01 mm
Ear thickness L. Ear, individual animals ([5]; TOP, 1 mg/ear × 2, N 1-6): 20 ×0.01 mm (4×) and 21 ×0.01 mm and 19 ×0.01 mm
Ear thickness Net, individual animals ([5]; TOP, 1 mg/ear × 2, N 1-6): 9 ×0.01 mm (3×) and 11 ×0.01 mm and 8 ×0.01 mm and 12 ×0.01 mm
Ear thickness R. Ear, individual animals ([5]; TOP, 1 mg/ear × 2, N 1-6): 29 ×0.01 mm (2×) and 32 ×0.01 mm (2×) and 28 ×0.01 mm (2×)
Ear thickness L. Ear, mean (X) ([5]; TOP, 3 mg/ear × 2): 20.5 ×0.01 mm
Ear thickness Net, mean (X) ([5]; TOP, 3 mg/ear × 2): 10.3 ×0.01 mm
Ear thickness R. Ear, mean (X) ([5]; TOP, 3 mg/ear × 2): 30.8 ×0.01 mm
Ear thickness L. Ear, individual animals ([5]; TOP, 3 mg/ear × 2, N 1-6): 21 ×0.01 mm (4×) and 19 ×0.01 mm and 20 ×0.01 mm
Ear thickness Net, individual animals ([5]; TOP, 3 mg/ear × 2, N 1-6): 6 ×0.01 mm (2×) and 11 ×0.01 mm and 16 ×0.01 mm (2×) and 7 ×0.01 mm
Ear thickness R. Ear, individual animals ([5]; TOP, 3 mg/ear × 2, N 1-6): 27 ×0.01 mm (2×) and 32 ×0.01 mm and 35 ×0.01 mm and 36 ×0.01 mm and 28 ×0.01 mm

IC50 [3]: 60 nM
Structure (SMILES): CNC(=O)[C@H](Cc1c[nH]c2ccccc12)NC(=O)[C@@H](CC(=O)NO)CC(C)C [GM-6001, reference compound]

Structure (SMILES): COc1ccc2c(c1)c(CC(=O)O)c(C)n2C(=O)c1ccc(Cl)cc1 [Indomethacin, reference compound]
Ear Thickness Net ([2]; 0.3 mg/ear × 2, topical): 9.7 ± 1.0 0.01 mm
% Inhibition ([2]; 0.3 mg/ear × 2, topical, relative to vehicle-treated control, ≧30% considered significant): (40) %
% Inhibition ([5]; TOP, 3 mg/ear × 2): (62) %
Ear thickness L. Ear, mean (X) ([5]; TOP, 3 mg/ear × 2): 20.2 ×0.01 mm
Ear thickness Net, mean (X) ([5]; TOP, 3 mg/ear × 2): 5.5 ×0.01 mm
Ear thickness R. Ear, mean (X) ([5]; TOP, 3 mg/ear × 2): 25.7 ×0.01 mm
Ear thickness L. Ear, individual animals ([5]; TOP, 3 mg/ear × 2, N 1-6): 19 ×0.01 mm and 21 ×0.01 mm (2×) and 20 ×0.01 mm (3×)
Ear thickness Net, individual animals ([5]; TOP, 3 mg/ear × 2, N 1-6): 7 ×0.01 mm and 4 ×0.01 mm and 6 ×0.01 mm (2×) and 5 ×0.01 mm (2×)
Ear thickness R. Ear, individual animals ([5]; TOP, 3 mg/ear × 2, N 1-6): 26 ×0.01 mm (4×) and 25 ×0.01 mm (2×)
